The values below come from patent US20230017045A1, “PYRIDINE AND PYRIMIDINE CARBOXYLATE HERBICIDES AND METHODS OF USE THEREOF” (Dow AgroSciences LLC, priority 2017, published 2023).

Where two headings read alike, the source gives them in different places.

The test system of this experiment is test plant species. In words: Post-emergent herbicidal activity test (greenhouse, foliar spray, visual growth reduction). The experiment is classed as in vivo. Conditions: post-emergence, 336 h, 140 g ai/ha, 14 days after application. Here is the method:
Post-emergent Test: Seeds or nutlets of the desired test plant species were planted in Sun Gro Metro-Mix® 360 planting mixture, which typically has a pH of 6.0 to 6.8 and an organic matter content of about 30 percent, in plastic pots with a surface area of 64 square centimeters. In some aspects, to ensure good germination and healthy plants, a fungicide treatment and/or other chemical or physical treatment was applied. The plants were grown for 7-21 d in a greenhouse with an approximate 15 h photoperiod which was maintained at 23-29° C. during the day and 22-28° C. during the night. Nutrients and water were added on a regular basis and supplemental lighting was provided with overhead metal halide 1000-Watt lamps as necessary. Plants were used for testing when they reached the first or second true leaf stage. A weighed amount, determined by the highest rate to be tested, of each test compound was placed in a 25 mL glass vial and was dissolved in 4 mL of a 97:3 v/v mixture of acetone and DMSO to obtain concentrated stock solutions. […] The concentrated stock solutions obtained were diluted with 20 mL of an aqueous mixture containing acetone, water, isopropyl alcohol, DMSO, […] crop oil concentrate, and X-77 surfactant in a 48.5:39:10:1.5:1.0:0.02 v/v ratio to obtain spray solutions containing the application rate. Compound requirements are based upon a 12 mL application volume at a rate of 187 liters per hectare (L/ha). Formulated compounds were applied to the plant material with an overhead Mandel track sprayer equipped with […] nozzles calibrated to deliver 187 L/ha over an application area of 0.64 square meters at a spray height of 18 inches (43 cm) above the average plant canopy height. Control plants were sprayed in the same manner with the solvent blank. The treated plants and control plants were placed in a greenhouse as described above and watered by subirrigation to prevent wash-off of the test compounds. After 14 d, the condition of the test plants as compared with that of the nontreated and control plants was determined visually and scored on a scale of 0 to 100 percent where 0 corresponds to no injury and 100 corresponds to complete control. In the reporting of the results, Table A: Percent Growth Reduction Conversion Table was used.

[1] abbreviates: ALOMY: blackgrass (Alopecurus myosuroides), read-out: Visual Growth Reduction (%) 14 Days After Application, ALOMY.
[2] abbreviates: AMARE: redroot pigweed (Amaranthus retroflexus), read-out: Visual Growth Reduction (%) 14 Days After Application, AMARE.
Setting [3] is: AVEFA: wild oat (Avena fatua), read-out: Visual Growth Reduction (%) 14 Days After Application, AVEFA.
[4] abbreviates: CHEAL: lambsquarters (Chenopodium album), read-out: Visual Growth Reduction (%) 14 Days After Application, CHEAL.
Setting [5] is: CIRAR: canada thistle (Cirsium arvense), read-out: Visual Growth Reduction (%) 14 Days After Application, CIRAR.
The mark [6] stands for this setting: CYPES: yellow nutsedge (Cyperus esculentus), read-out: Visual Growth Reduction (%) 14 Days After Application, CYPES.
The mark [7] stands for this setting: DIGSA: crabgrass (Digitaria sanguinalis), read-out: Visual Growth Reduction (%) 14 Days After Application, DIGSA.
Setting [8] is: ECHCG: barnyardgrass (Echinochloa crus-galli), read-out: Visual Growth Reduction (%) 14 Days After Application, ECHCG.
Where [9] appears, read: IPOHE: ivy-leaf morning glory (Ipomoea hederacea), read-out: Visual Growth Reduction (%) 14 Days After Application, IPOHE.
Setting [10] is: KCHSC: kochia (Bassia scoparia), read-out: Visual Growth Reduction (%) 14 Days After Application, KCHSC.
[11] abbreviates: ORYSA: rice (Oryza sativa), read-out: Visual Growth Reduction (%) 14 Days After Application, ORYSA.
The mark [12] stands for this setting: SETFA: giant foxtail (Setaria faberi), read-out: Visual Growth Reduction (%) 14 Days After Application, SETFA.
[13] abbreviates: SORVU: grain sorghum (Sorghum vulgare), read-out: Visual Growth Reduction (%) 14 Days After Application, SORVU.
Where [14] appears, read: STEME: common chickweed (Stellaria media), read-out: Visual Growth Reduction (%) 14 Days After Application, STEME.
Where [15] appears, read: TRZAS: wheat, spring (Triticum aestivum), read-out: Visual Growth Reduction (%) 14 Days After Application, TRZAS.

On to `O=C(OCc1ccccn1)c1nc(-c2ccc(C(F)(F)F)cc2Cl)ccc1Cl` [F54, Pyridin-2-ylmethyl 3-chloro-6-(2-chloro-4-(trifluoromethyl)phenyl)picolinate], for which the pest or weed control at 140 g/ha was 0 to 29% under setting [1]; 0 to 29% under setting [2]; 0 to 29% under setting [3]; 0 to 29% under setting [4]; 0 to 29% under setting [5]; 0 to 29% under setting [6]. For the same compound, the pest or weed control at 140 g/ha under setting [7] was in the range of 0 to 29%; the pest or weed control at 140 g/ha under setting [8] lay within 75 to 84%; the pest or weed control at 140 g/ha under setting [9] is 95 to 100%; the pest or weed control at 140 g/ha under setting [10] lay within 95 to 100%; the pest or weed control at 140 g/ha under setting [11] lay within 0 to 29%; the pest or weed control at 140 g/ha under setting [12] lay within 85 to 94%. Moreover, the pest or weed control at 140 g/ha lay within 95 to 100% under setting [13], 0 to 29% under setting [14] and 85 to 94% under setting [15].
Consider `COC(=O)c1cccc(-c2ccc(C(F)(F)F)cc2Cl)n1` [F55, Methyl 6-(2-chloro-4-(trifluoromethyl)phenyl)picolinate], for which the pest or weed control at 140 g/ha was 0 to 29% under setting [1]; 95 to 100% under setting [2]; 0 to 29% under setting [3]; 60 to 74% under setting [4]; 0 to 29% under setting [5]; 0 to 29% under setting [6]. The pest or weed control at 140 g/ha is, setting by setting: under setting [7], 0 to 29%; under setting [8], 0 to 29%; under setting [9], 30 to 44%; under setting [10], 0 to 29%; under setting [11], 0 to 29%; under setting [12], 0 to 29%. Besides, the pest or weed control at 140 g/ha fell in the range of 0 to 29% under setting [13], 0 to 29% under setting [14] and 0 to 29% under setting [15].
Turning to `COC(=O)c1cc(Cl)cc(-c2ccc(Cl)cc2Cl)n1` [F56, Methyl 4-chloro-6-(2,4-dichlorophenyl) picolinate], the pest or weed control at 140 g/ha was 0 to 29% under setting [1]; 0 to 29% under setting [2]; 0 to 29% under setting [3]; 0 to 29% under setting [4]; 0 to 29% under setting [5]; 0 to 29% under setting [6]. Besides, the pest or weed control at 140 g/ha was 0 to 29% under setting [7]; 0 to 29% under setting [8]; 0 to 29% under setting [9]; 0 to 29% under setting [10]; 0 to 29% under setting [11]; 0 to 29% under setting [12]. The pest or weed control at 140 g/ha under setting [13] lay within 0 to 29%, the pest or weed control at 140 g/ha under setting [14] was 0 to 29% and the pest or weed control at 140 g/ha under setting [15] lay in the range of 0 to 29%.
Take `COC(=O)c1cc(Cl)cc(-c2ccc(C(F)(F)F)cc2Cl)n1` [F57, Methyl 4-chloro-6-(2-chloro-4-(trifluoromethyl)phenyl)picolinate]: the pest or weed control at 140 g/ha by setting is: under setting [1], 0 to 29%; under setting [2], 0 to 29%; under setting [3], 0 to 29%; under setting [4], 0 to 29%; under setting [5], 0 to 29%; under setting [6], 0 to 29%. Also, the pest or weed control at 140 g/ha was in the range of 0 to 29% under setting [7]; 0 to 29% under setting [8]; 0 to 29% under setting [9]; 0 to 29% under setting [10]; 0 to 29% under setting [11]; 0 to 29% under setting [12]. Moreover, the pest or weed control at 140 g/ha by setting is: under setting [13], 0 to 29%; under setting [14], 0 to 29%; under setting [15], 0 to 29%.
As to `COC(=O)c1nc(-c2ccc(OC(F)(F)F)cc2Cl)ccc1Cl` [F58, Methyl 3-chloro-6-(2-chloro-4-(trifluoromethoxy)phenyl)picolinate], the pest or weed control at 140 g/ha reads like this: under setting [1], 30 to 44%; under setting [2], 95 to 100%; under setting [3], 45 to 59%; under setting [4], 60 to 74%; under setting [5], 95 to 100%; under setting [6], 0 to 29%. The pest or weed control at 140 g/ha under setting [7] was in the range of 85 to 94%; the pest or weed control at 140 g/ha under setting [8] lay in the range of 0 to 29%; the pest or weed control at 140 g/ha under setting [9] lay within 95 to 100%; the pest or weed control at 140 g/ha under setting [10] is 30 to 44%; the pest or weed control at 140 g/ha under setting [11] lay in the range of 0 to 29%; the pest or weed control at 140 g/ha under setting [12] was 75 to 84%. For the same compound, the pest or weed control at 140 g/ha under setting [13] was 85 to 94%.
On to `COC(=O)c1nc(-c2ccc(C#N)cc2Cl)ccc1Cl` [F59, methyl 3-chloro-6-(2-chloro-4-cyanophenyl)picolinate], for which the pest or weed control at 140 g/ha under setting [1] fell in the range of 0 to 29%; the pest or weed control at 140 g/ha under setting [2] lay within 85 to 94%; the pest or weed control at 140 g/ha under setting [3] is 0 to 29%; the pest or weed control at 140 g/ha under setting [4] lay in the range of 60 to 74%; the pest or weed control at 140 g/ha under setting [5] lay within 30 to 44%; the pest or weed control at 140 g/ha under setting [6] was in the range of 0 to 29%. Also, the pest or weed control at 140 g/ha reads like this: under setting [7], 60 to 74%; under setting [8], 45 to 59%; under setting [9], 95 to 100%; under setting [10], 45 to 59%; under setting [11], 0 to 29%; under setting [12], 45 to 59%. For the same compound, the pest or weed control at 140 g/ha reads like this: under setting [13], 75 to 84%; under setting [14], 0 to 29%; under setting [15], 0 to 29%.
For the compound `COC(=O)c1nc(-c2ccc(C)cc2Cl)ccc1Cl` [F60, Methyl 3-chloro-6-(2-chloro-4-methylphenyl) picolinate], the pest or weed control at 140 g/ha was in the range of 0 to 29% under setting [1]; 60 to 74% under setting [2]; 0 to 29% under setting [3]; 0 to 29% under setting [4]; 0 to 29% under setting [5]; 0 to 29% under setting [6]. Also, the pest or weed control at 140 g/ha under setting [7] fell in the range of 0 to 29%; the pest or weed control at 140 g/ha under setting [8] fell in the range of 0 to 29%; the pest or weed control at 140 g/ha under setting [9] is 45 to 59%; the pest or weed control at 140 g/ha under setting [10] is 0 to 29%; the pest or weed control at 140 g/ha under setting [12] was in the range of 0 to 29%; the pest or weed control at 140 g/ha under setting [13] fell in the range of 0 to 29%. Besides, the pest or weed control at 140 g/ha under setting [14] lay in the range of 0 to 29%.
